Measured values from patent US8119630B2 (Arrow Therapeutics Limited, priority 2002, dated 2012).

test system: RSV; experiment: XTT assay, RSV-infected Vero cells; type: cell-based, Respiratory Syncytial Virus (RSV); settings: Table 1; Vero cells infected with RSV, m.o.i.≈0.2, 6 days at 33° C.; read-out: XTT IC50
Method: Examples 1 to 74 and 83 to 124 were tested using the following protocol.
The inner 60 wells of 96 well tissue culture plates were seeded with Vero cells at 3×10^4 cells/well (1×10^4 cells/well for toxicity studies) in 100 or 150 μl of medium and incubated at 37° C. overnight or until nearing confluency. For primary screen, 25 μl compounds were added directly to 100 μl medium in single wells to duplicate plates. A third plate was prepared for simultaneous toxicity investigation.
For follow-up investigation, 70 μl of compound in duplicate wells were added directly to culture medium at 3.2× final concentration and ½ log serially diluted down columns of plate. A duplicate plate was prepared for simultaneous toxicity investigation.
Cells were infected with 25 μl RSV to give m.o.i.≈0.2. Some 100 μl of sterile distilled water were added to the outer wells of the plate and incubated at 33° C. for 6 days. Some 0.25 μl/ml PMS were added to stock XTT solution, final conc. […]. Then 25 μl warmed XTT/PMS solution were added to each well and incubated for 5 hours at 37° C. Plates were shaken (DynaTech Vari-Shaker) vigorously for 10 mins and allowed to cool for 15 mins before sealing. Absorbance at 450 nm was measured and data analysed using Microsoft Excel software.
Maximum OD450nm reading (uninfected, untreated control cells) corresponded to 100% inhibition. Minimum OD450nm readings (infected control cells) corresponded to 0% inhibition. Log 10 concentration was plotted against OD450nm and IC50 (Table 1) values were calculated from either reading 50% value from graph or using regression analysis.

Row | Compound | IC50 [µM]
1 | CCCS(=O)(=O)NC1N=C(c2ccccc2)c2ccccc2NC1=O (stereo not shown) [Example 36] | 15
2 | CCCCS(=O)(=O)NC1N=C(c2ccccc2)c2ccccc2NC1=O (stereo not shown) [Example 37, Butane-1-sulfonic acid-(2-oxo-5-phenyl-2,3-dihydro-H-benzo[e][1,4]diazepin-3-yl)-amide] | 15

same assay, conditions: human respiratory syncytial virus, Vero, 144 h, read-out: XTT IC50 (uM), Table 1; Vero cells infected with RSV, m.o.i.≈0.2, 6 days at 33° C.

Row | Compound | IC50 [µM]
3 | O=C(NC1N=C(c2ccccc2)c2ccccc2NC1=O)c1ccccc1C(F)(F)F (stereo not shown) [Example 22, N-(2-oxo-5-phenyl-2,3-dihydro-1H-benzo[e][1,4]diazepin-3-yl)-2-trifluoromethyl-benzamide] | 4
4 | O=C(NC1N=C(c2ccccc2)c2ccccc2NC1=O)c1ccc(Br)cc1 (stereo not shown) [Example 23, 4-Bromo-N-(2-oxo-5-phenyl-2,3-dihydro-1H-benzo[e][1,4]diazepin-3-yl)-benzamide] | 5
5 | Cc1ccccc1C(=O)NC1N=C(c2ccccc2)c2ccccc2NC1=O (stereo not shown) [Example 24, 2-Methyl-N-(2-oxo-5-phenyl-2,3-dihydro-1H-benzo[e][1,4]diazepin-3-yl)-benzamide] | 3
6 | O=C(NC1N=C(c2ccccc2)c2ccccc2NC1=O)c1ccccc1Cl (stereo not shown) [Example 25, 2-Chloro-N-(2-oxo-5-phenyl-2,3-dihydro-1H-benzo[e][1,4]diazepin-3-yl)-benzamide] | 2
7 | O=C(NC1N=C(c2ccccc2)c2ccccc2NC1=O)c1ccccc1[N+](=O)[O-] (stereo not shown) [Example 26, 2-Nitro-N-(2-oxo-5-phenyl-2,3-dihydro-1H-benzo[e][1,4]diazepin-3-yl)-benzamide] | 2
8 | COc1cc([N+](=O)[O-])ccc1C(=O)NC1N=C(c2ccccc2)c2ccccc2NC1=O (stereo not shown) [Example 27a, 2-Methoxy-4-nitro-N-(2-oxo-5-phenyl-2,3-dihydro-1H-benzo[e][1,4]diazepin-3-yl)-benzamide] | 0.3
9 | COc1cc([N+](=O)[O-])ccc1C(=O)N[C@H]1N=C(c2ccccc2)c2ccccc2NC1=O [Example 27b, (S)-2-Methoxy-4-nitro-N-(2-oxo-5-phenyl-2,3-dihydro-1H-benzo[e][1,4]diazepin-3-yl)-benzamide] | < 0.3
10 | O=C(NC1N=C(c2ccccc2)c2ccccc2NC1=O)c1csc2ccccc12 (stereo not shown) [Example 28, Benzo[b]thiophene-3-carboxylic acid (2-oxo-5-phenyl-2,3-dihydro-1H-benzo[e][1,4]diazepin-3-yl)-amide] | 5
11 | O=C(NC1N=C(c2ccccc2)c2ccccc2NC1=O)c1ccc2c(c1)CCO2 (stereo not shown) [Example 29, 2,3-Dihydro-benzofuran-5-carboxylic acid (2-oxo-5-phenyl-2,3-dihydro-1H-benzo[e][1,4]diazepin-3-yl)-amide] | 2
12 | O=C(NC1N=C(c2ccccc2)c2ccccc2NC1=O)c1ccno1 (stereo not shown) [Example 30, Isoxazole-5-carboxylic acid (2-oxo-5-phenyl-2,3-dihydro-1H-benzo[e][1,4]diazepin-3-yl)-amide] | 3
13 | O=C(NC1N=C(c2ccccc2)c2ccccc2NC1=O)c1cc2ccccc2s1 (stereo not shown) [Example 31, Benzo[b]thiophene-2-carboxylic acid (2-oxo-5-phenyl-2,3-dihydro-1H-benzo[e][1,4]diazepin-3-yl)-amide] | 5
14 | O=C(NC1N=C(c2ccccc2)c2ccccc2NC1=O)c1ccsc1 (stereo not shown) [Example 32, Thiophen-3-carboxylic acid (2-oxo-5-phenyl-2,3-dihydro-1H-benzo[e][1,4]diazepin-3-yl)-amide] | 2
15 | O=C(NC1N=C(c2ccccc2)c2ccccc2NC1=O)c1ccncc1 (stereo not shown) [Example 33, N-(2-Oxo-5-phenyl-2,3-dihydro-1H-benzo[e][1,4]diazepin-3-yl)-isonicotinamide] | 2.5
16 | O=C(NC1N=C(c2ccccc2)c2ccccc2NC1=O)c1cccnc1 (stereo not shown) [Example 34, N-(2-Oxo-5-phenyl-2,3-dihydro-1H-benzo[e][1,4]diazepin-3-yl)-nicotinamide] | 3
17 | CS(=O)(=O)NC1N=C(c2ccccc2)c2ccccc2NC1=O (stereo not shown) [Example 35, N-(2-Oxo-5-phenyl-2,3-dihydro-1H-benzo[e][1,4]diazepin-3-yl)methanesulfonamide] | 6
18 | O=C1Nc2ccccc2C(c2ccccc2)=NC1NS(=O)(=O)c1ccccc1Br (stereo not shown) [Example 38, 2-Bromo-N-(2-oxo-5-phenyl-2,3-dihydro-1H-benzo[e][1,4]diazepin-3-yl)-benzenesulfonamide] | 6
19 | O=C1Nc2ccccc2C(c2ccccc2)=NC1NS(=O)(=O)c1cccc(Br)c1 (stereo not shown) [Example 39, 3-Bromo-N-(2-oxo-5-phenyl-2,3-dihydro-1H-benzo[e][1,4]diazepin-3-yl)-benzenesulfonamide] | 10
20 | O=C1Nc2ccccc2C(c2ccccc2)=NC1NS(=O)(=O)c1ccc(Br)cc1 (stereo not shown) [Example 40, 4-Bromo-N-(2-oxo-5-phenyl-2,3-dihydro-1H-benzo[e][1,4]diazepin-3-yl)-benzenesulfonamide] | 10
21 | O=C1Nc2ccccc2C(c2ccccc2)=NC1NS(=O)(=O)c1ccccc1F (stereo not shown) [Example 41, 2-Fluoro-N-(2-oxo-5-phenyl-2,3-dihydro-1H-benzo[e][1,4]diazepin-3-yl)-benzenesulfonamide] | 10
22 | O=C1Nc2ccccc2C(c2ccccc2)=NC1NCc1ccccc1[N+](=O)[O-] (stereo not shown) [Example 42, 3-(2-Nitro-benzylamino)-5-phenyl-1,3-dihydro-benzo[e][1,4]diazepin-2-one] | 20
23 | O=C1Nc2ccccc2C(c2ccccc2)=NC1NCc1cccc([N+](=O)[O-])c1 (stereo not shown) [Example 43, 3-(3-Nitro-benzylamino)-5-phenyl-1,3-dihydro-benzo[e][1,4]diazepin-2-one] | 30
24 | O=C1Nc2ccccc2C(c2ccccc2)=NC1NCc1ccc([N+](=O)[O-])cc1 (stereo not shown) [Example 44, 3-(4-Nitro-benzylamino)-5-phenyl-1,3-dihydro-benzo[e][1,4]diazepin-2-one] | 10
25 | COc1ccccc1CNC1N=C(c2ccccc2)c2ccccc2NC1=O (stereo not shown) [Example 45, 3-(2-Methoxy-benzylamino)-5-phenyl-1,3-dihydro-benzo[e][1,4]diazepin-2-one] | 20
26 | COc1cccc(CNC2N=C(c3ccccc3)c3ccccc3NC2=O)c1 (stereo not shown) [Example 46, 3-(3-Methoxy-benzylamino)-5-phenyl-1,3-dihydro-benzo[e][1,4]diazepin-2-one] | 30
27 | O=C1Nc2ccccc2C(c2ccccc2)=NC1NCc1ccccc1C(F)(F)F (stereo not shown) [Example 47, 5-Phenyl-3-(2-trifluoromethyl-benzylamino) 1,3-dihydro-benzo[e][1,4]diazepin-2-one] | 30
28 | O=C1Nc2ccccc2C(c2ccccc2)=NC1NCc1ccc(C(F)(F)F)cc1 (stereo not shown) [Example 49, 5-Phenyl-3-(4-trifluoromethyl-benzylamino)-1,3-dihydro-benzo[e][1,4]diazepin-2-one] | 50
29 | O=C1Nc2ccccc2C(c2ccccc2)=NC1NCc1ccco1 (stereo not shown) [Example 50, 3-[(Furan-2-ylmethyl)-amino]-5-phenyl-1,3-dihydro-benzo[e][1,4]diazepin-2-one] | 50
30 | CC(=O)NC1N=C(c2ccccc2)c2cc(Cl)ccc2NC1=O (stereo not shown) [Example 51, N-(7-Chloro-2-oxo-5-phenyl-2,3-dihydro-1H-benzo[e][1,4]diazepin-3-yl)-acetamide] | 5
31 | CC(C)C(=O)NC1N=C(c2ccccc2)c2cc(Cl)ccc2NC1=O (stereo not shown) [Example 52, N-(7-Chloro-2-oxo-5-phenyl-2,3-dihydro-1H-benzo[e][1,4]diazepin-3-yl)-isobutyramide] | 3
